# Experimental data: patent US6100275A, “8-azabicyclo[3.2.1.]oct-2-ene derivatives, their preparation and use” (Neurosearch A/S, priority 1995, dated 2000)
# Experiments:
# [1] = biological target: T1, 3H-dopamine (DA) uptake in striatal synaptosomes (Rattus norvegicus, UniProt P23977); assay: In vitro inhibition of 3H-dopamine (3H-DA) uptake in striatal synaptosomes; type: biochemical, rat (male Wistar)
# T1 construct: Corpi striati from male Wistar rats (150-200 g); from tissue; host or cells: corpus striatum of male Wistar rats, crude synaptosomal P2 fraction
# Text: (§1) Specific neurotransmitter transporters/uptake sites on nerve terminals presumably function to terminate neuronal signaling by removing the neurotransmitters dopamine, noradrenaline and serotonin, respectively, from the synaptic cleft. The activity of the transporter integral proteins can be measured in vitro by synaptosomal uptake of ^3 H-dopamine, ^3 H-noradrenaline and ^3 H-serotonine, respectively.
# In vitro Inhibition of ^3 H-dopamine (^3 H-DA) Uptake in Striatal Synaptosomes
# (§2) Tissue preparations: Preparations are performed at 0-4° C. unless otherwise indicated. Corpi striati from male Wistar rats (150-200 g) are homogenized for 5-10 sec in 100 volumes of ice-cold 0.32M sucrose containing 1 mM pargyline using an Ultra-Turrax homogenizer. Monoamine oxidase activity will be inhibited in the presence of pargyline. The homogenate is centrifuged at 1000×g for 10 min. […]
# (§3) Assay: Aliquots of 4.0 ml tissue suspension are added to 100 μl of test solution and 100 μl of ^3 H-DA (1 nM, final concentration), mixed and incubated for 25 min at 37° C. Non-specific uptake is determined using benztropine (10 μM, final concentration). […] The amount of radioactivity on the filters is determined by conventional liquid scintillation counting. Specific uptake is calculated as the difference between total uptake and non-specific uptake. […]
# [2] = biological target: T2, 3H-noradrenaline (NA) uptake in hippocampal synaptosomes (Rattus norvegicus, UniProt Q63380); assay: In vitro inhibition of 3H-noradrenaline (3H-NA) uptake in hippocampal synaptosomes; type: biochemical, rat (male Wistar)
# T2 construct: Hippocampi from male Wistar rats (150-200 g); from tissue; host or cells: hippocampus of male Wistar rats, crude synaptosomal P2 fraction
# Text: as §1
# In vitro Inhibition of ^3 H-noradrenaline (^3 H-NA) Uptake in Hippocampal Synaptosomes
# as §2, with “preparation:” for “preparations:”, “Hippocampi” for “Corpi striati”
# as §3, with “H-NA” for “H-DA”, “90” for “25”, “desipramine (1” for “benztropine (10”
# [3] = biological target: T3, 3H-5-hydroxytryptamine (5-HT, serotonin) uptake in cortical synaptosomes (Rattus norvegicus, UniProt P31652); assay: In vitro inhibition of 3H-5-hydroxytryptamine (3H-5-HT, serotonin) uptake in cortical synaptosomes; type: biochemical, rat (male Wistar)
# T3 construct: Cerebral cortices from male Wistar rats (150-200 g); from tissue; host or cells: cerebral cortex of male Wistar rats, crude synaptosomal P2 fraction
# Text: as §1
# In vitro Inhibition of ^3 H-5-hydroxytryptamine (^3 H-5-HT, serotonin) Uptake in Cortical Synaptosomes
# as §2, with “preparation:” for “preparations:”, “Cerebral cortices” for “Corpi striati”
# as §3, with “H-5-HT” for “H-DA”, “30” for “25”, “citalopram (1” for “benztropine (10”
# [4] = test system: mice (immobility time, tail suspension); assay: Tail suspension test for antidepressant activity (immobility time); type: in vivo, mouse (female NMRI); conditions: Mus musculus, 0.5 h, oral, 30 min before test, 6 min observation, graphical interpolation from at least 3 doses, read-out: ED50 (dose reducing the immobility to 100 sec)
# Protocol: A decrease in the immobility time by mice suspended in their tail is seen after systemic administration of central stimulants and by antidepressants (Steru, L., Chermat, R., Thierry, B. & Simon, P. (1985) The tail suspension test: A new method for screening antidepressants in mice. Psychopharmacology 85:367-370.).
# Female NMRI mice (20-25 g) habituated to the room (12 hours light/dark) for at least 16 hours and housed 25 per cage are used. The mice are suspended by the tail with adhesive tape to a rod 30 cm above the lab. bench 30 min after an oral administation of vehicle or drug. For the next 6 min the accumulated duration of immobility defined as no movements by the body or extremities (however head movements are not defined as movements) are noted. Six mice per dose are used.
# Saline or vehicle treated mice have immobility time scores between 160-180 sec in average. An ED50 -value is calculated by graphical interpolation from at least 3 doses as the dose reducing the immobility to 100 sec.
# T3 sequence (P31652 whole entry): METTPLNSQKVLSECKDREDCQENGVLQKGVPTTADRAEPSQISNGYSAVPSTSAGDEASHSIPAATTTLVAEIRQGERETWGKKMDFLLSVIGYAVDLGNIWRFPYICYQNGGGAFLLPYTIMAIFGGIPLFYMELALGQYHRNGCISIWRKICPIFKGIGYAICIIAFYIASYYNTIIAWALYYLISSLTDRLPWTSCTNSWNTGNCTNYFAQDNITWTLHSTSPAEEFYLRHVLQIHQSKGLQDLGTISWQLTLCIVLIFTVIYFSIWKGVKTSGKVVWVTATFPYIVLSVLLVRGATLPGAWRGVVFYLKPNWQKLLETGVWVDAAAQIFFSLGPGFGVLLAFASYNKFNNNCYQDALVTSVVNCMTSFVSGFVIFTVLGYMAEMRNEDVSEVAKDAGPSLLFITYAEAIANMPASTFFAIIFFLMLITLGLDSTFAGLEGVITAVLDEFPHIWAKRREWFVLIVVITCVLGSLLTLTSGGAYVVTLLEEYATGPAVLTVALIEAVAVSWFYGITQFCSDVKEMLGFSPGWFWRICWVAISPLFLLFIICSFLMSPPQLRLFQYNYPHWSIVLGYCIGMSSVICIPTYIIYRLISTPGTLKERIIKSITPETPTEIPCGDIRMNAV
# T2 sequence (Q63380 1-617): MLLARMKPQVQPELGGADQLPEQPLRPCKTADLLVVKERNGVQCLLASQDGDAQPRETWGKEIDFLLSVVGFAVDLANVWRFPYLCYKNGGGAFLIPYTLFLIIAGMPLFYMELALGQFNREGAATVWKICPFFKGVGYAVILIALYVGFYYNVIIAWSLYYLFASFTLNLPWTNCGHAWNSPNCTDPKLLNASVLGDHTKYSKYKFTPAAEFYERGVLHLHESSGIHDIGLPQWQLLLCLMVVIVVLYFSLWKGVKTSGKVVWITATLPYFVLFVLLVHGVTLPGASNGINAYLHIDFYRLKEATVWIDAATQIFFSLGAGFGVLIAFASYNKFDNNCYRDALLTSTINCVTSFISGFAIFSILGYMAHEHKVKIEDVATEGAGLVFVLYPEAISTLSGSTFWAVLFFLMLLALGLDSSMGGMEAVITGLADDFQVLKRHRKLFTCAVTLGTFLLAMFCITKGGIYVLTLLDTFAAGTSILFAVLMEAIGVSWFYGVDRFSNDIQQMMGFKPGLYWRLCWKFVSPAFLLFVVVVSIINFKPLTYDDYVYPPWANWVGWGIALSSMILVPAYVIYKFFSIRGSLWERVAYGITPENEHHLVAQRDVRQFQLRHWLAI
# T1 sequence (P23977 whole entry): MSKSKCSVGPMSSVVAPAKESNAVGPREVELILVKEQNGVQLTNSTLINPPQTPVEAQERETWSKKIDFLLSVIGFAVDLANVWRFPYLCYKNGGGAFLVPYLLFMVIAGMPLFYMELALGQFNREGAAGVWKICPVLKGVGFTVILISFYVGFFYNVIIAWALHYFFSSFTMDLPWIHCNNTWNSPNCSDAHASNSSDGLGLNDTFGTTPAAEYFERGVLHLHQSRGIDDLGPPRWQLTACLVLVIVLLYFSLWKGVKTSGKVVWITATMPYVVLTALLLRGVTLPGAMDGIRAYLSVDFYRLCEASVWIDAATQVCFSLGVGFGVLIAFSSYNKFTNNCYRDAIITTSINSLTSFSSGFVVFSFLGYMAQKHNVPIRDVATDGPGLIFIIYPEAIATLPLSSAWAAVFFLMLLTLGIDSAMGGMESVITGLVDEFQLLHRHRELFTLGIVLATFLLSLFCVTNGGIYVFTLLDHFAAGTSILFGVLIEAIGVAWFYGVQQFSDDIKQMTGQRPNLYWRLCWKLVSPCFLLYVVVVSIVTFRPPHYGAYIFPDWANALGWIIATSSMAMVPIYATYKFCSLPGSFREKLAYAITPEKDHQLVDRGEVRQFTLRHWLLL
structure (smiles),measurement,setting,value
"CN1C2C=C(c3ccc(Cl)c(Cl)c3)CC1CC2 (racemic) [(±)-3-(3,4-Dichlorophenyl)-8-methyl-8-azabicyclo[3.2.1]oct-2-ene]",IC50,[1],79 nM
same,IC50,[2],26 nM
same,IC50,[3],4.7 nM
same,ED50,[4],0.96 mg/kg
